In PMC12071365, “Discovery of Boronic Acids-Based β-Lactamase Inhibitors Through In Situ Click Chemistry” (International Journal of Molecular Sciences, 2025):
Like-named read-outs stand apart in the source and are kept apart here.

What was measured:
AmpC [1] = target: T1, AmpC (Escherichia coli, UniProt P00811); test: Competitive inhibition assay with nitrocefin, Ki; format: biochemical; design: made in house
Method: (§1) The β-lactamases used in the present study were from a Clinical Biochemistry Laboratory collection (Department of Biotechnological and Applied Clinical Sciences, University of L’Aquila, L’Aquila, Italy). […] The concentration of each enzyme was determined by a Bradford assay.
(§2) The plot v0/vi versus [I] yielded a straight line of slope KM/(KM + S) × Ki.
Figure 9 Compounds synthesised and their biological evaluation. AC = Amplification coefficient. […] Light blue indicates the compounds from the AmpC screening.

KPC-2 [2] = target: T2, KPC-2 (Klebsiella pneumoniae, UniProt Q9F663); test: Competitive inhibition assay with nitrocefin, Ki; format: biochemical; conditions: for improvement compared with the warhead activity: Ki vs KPC-2 relative to warhead 3 (Ki = 2.3 µM)
T2 construct: made in house
Method: as §1, §2
AC = Amplification coefficient. In the AC column, between brackets reports the regioisomeric ratio observed (1,4- vs. 1,5-) and bold reports the synthesised regioisomer. Light blue indicates the compounds obtained from the KPC-2 screening.

KPC-2 [3] = target: T2, KPC-2; conditions: KPC-2 20 mol%; warhead 3 + alkyne cluster; 37 °C, 24 h
Method: Starting from the azido-functionalised boronic acid 3, optimised conditions (see SI Table S2) were applied in combination with the 90-component alkyne library. The reactions were conducted in 0.2 mL microtubes in a 95:5 sodium phosphate 50 mM pH 7.0:DMSO mixture (final volume 100 µL), stirring at 300 rpm at 37 °C for 24 h (Scheme 1).
The experiments were conducted in triplicate, using a reaction mixture containing one equivalent of warhead 3, five equivalents of each alkyne cluster (9 alkynes), and 20 mol% KPC-2 as the catalyst. Product formation was monitored directly from the crude mixture using a hybrid quadrupole orbitrap LC–MS system in the ESI+ or ESI- mode after 24 h. Peak areas of the desired products were compared across three conditions: with KPC-2, without any enzyme, and with bovine serum albumin (BSA). […] The resulting ratio, named as the amplification coefficient (AC), was calculated from the peak area of the product obtained in the presence of KPC-2 vs. the one acquired with the controls.
(§3) Binary and multicomponent KTGS. […] The microtube was shaken at 300 rpm at 37 °C for 24 h. Reactions were transferred into a LC–MS vial and directly injected (10 µL) for liquid chromatography–mass spectrometry (LC–MS). Reactions were analysed with an Ultimate 3000 UHPLC coupled to a Q-exactive hybrid quadrupole-orbitrap mass spectrometer via an HESI-II heated electrospray ionisation source. The chromatographic separation was performed injecting a 10 µL sample volume on a Hypersil Gold C18 100 × 2.1 mm, 1.9 µm column (Thermo Fisher Scientific), kept at 30 °C eluting with 0.3 mL/min flow of ultrapure water (A) and methanol (B), both with 0.1% formic acid as mobile phase. […] A data-dependent mass spectrometric data acquisition strategy was used for full MS/DD-MS2. […] An inclusion list was eventually used to target the MS2 spectra acquisition of preferred ion species. Detection was based on calculated [M+H]^+ and [M−H]^− molecular ions with a 5 ppm accuracy tolerance for their respective ion chromatogram extraction. Peak retention time and area of detected target compounds was used for their detection and semi-quantitative evaluation in between reaction batches.
(§4) For controls (buffer and BSA), AmpC/KPC-2 is replaced with no enzyme (buffer volume 95 µL) and BSA (stock 100 µM, final concentration 5 µM, buffer volume 90 µL). Hits were identified in each cluster by mass and retention time and compared with both controls (buffer and BSA) and synthetically prepared triazoles obtained in mixtures.

AmpC [4] = target: T1, AmpC; design: made in house; conditions: AmpC 20 mol%; warhead 3 + alkyne cluster; 37 °C, 24 h
Method: Following the same conditions used for the multicomponent screening with KPC-2, the in situ click chemistry experiment was performed using AmpC as template.
as §3, §4

ADC-7 = target: ADC-7; design: method as in PMID 26102369, PMID 34970229, PMID 37358467, PMID 26729491; conditions: ref [17],[19],[35],[36]; cited from earlier work
AmpC [5] = target: T1, AmpC; test: % inhibition at fixed concentration; format: biochemical; design: made in house
From the text: Selection of an appropriate warhead-bearing reagent is crucial for achieving a successful in situ click chemistry. Thus, we assessed the inhibitory activity of the selected warheads against a pool of different β-lactamases to verify their binding specificity for the target. […]
as §1, §2
(§5) For the β-lactamases test at a fixed concentration previously reported in Table 1, the following conditions were applied (Table 3): […]

NDM-1 = NDM-1 (Klebsiella pneumoniae, UniProt C7C422); test: % inhibition at fixed concentration; format: biochemical; design: made in house
Method: (§6) Selection of an appropriate warhead-bearing reagent is crucial for achieving a successful in situ click chemistry. Thus, we assessed the inhibitory activity of the selected warheads against a pool of different β-lactamases to verify their binding specificity for the target. The affinity (inhibitory ability) of 2-4 against 12 representative β-lactamases from class A, B, C, and D was assessed as the percentage of inhibition at a fixed concentration of 200 µM (Table 1).
as §1, §2, §5

SHV-12 = SHV-12 (Klebsiella pneumoniae, UniProt P0AD64, E235K/G234S/L31Q); test: % inhibition at fixed concentration; format: biochemical; conditions: SHV-12, class A; inhibitor 200 µM; substrate NCF
KPC-2 [6] = target: T2, KPC-2; test: % inhibition at fixed concentration; format: biochemical
Method: as §6, §1, §2, §5

IMP-1 = target: T3, IMP-1 (Serratia marcescens, UniProt P52699); test: % inhibition at fixed concentration; format: biochemical
T3 construct: made in house
Method: as §6, §1, §2, §5

OXA-48 = OXA-48 (Klebsiella pneumoniae, UniProt Q6XEC0); test: % inhibition at fixed concentration; format: biochemical; conditions: OXA-48, class D; inhibitor 200 µM; substrate IMI
Method: as §6, §1, §2, §5

KPC-53 = KPC-53 (Klebsiella pneumoniae, UniProt Q9F663, DUP166-167/H272Y); test: % inhibition at fixed concentration; format: biochemical
Method: as §6, §1, §2, §5

CTX-M-15 = target: T4, CTX-M-15 (Escherichia coli, UniProt Q9EXV5); test: % inhibition at fixed concentration; format: biochemical
T4 construct: made in house
Method: as §6, §1, §2, §5

OXA-24 = OXA-24 (Acinetobacter baumannii, UniProt Q8RLA6); test: % inhibition at fixed concentration; format: biochemical
Method: as §6, §1, §2, §5

ADC-25 = ADC-25 (Acinetobacter baumannii, UniProt A8QIF8); test: % inhibition at fixed concentration; format: biochemical
Method: as §6, §1, §2, §5

CMY-2 = CMY-2 (Klebsiella pneumoniae, UniProt Q48434); test: % inhibition at fixed concentration; format: biochemical
Method: as §6, §1, §2, §5

VIM-1 = target: T5, VIM-1 (Pseudomonas aeruginosa, UniProt A0A0F7KYQ8); test: % inhibition at fixed concentration; format: biochemical
T5 construct: made in house
Method: as §6, §1, §2, §5

KPC-2 [7] = target: T2, KPC-2; design: method as in PMID 35792385; conditions: ref [58]; cited from earlier work
[8] = system: O=C(Cc1cccs1)N[C@@H]1C(=O)N2C(C(=O)O)=C(/C=C/c3ccc([N+](=O)[O-])cc3[N+](=O)[O-])CS[C@H]12; test: purified protein, by the assay type
[9] = system: C[C@@H](O)[C@H]1C(=O)N2C(C(=O)O)=C(S[C@@H]3CN[C@H](C(=O)N(C)C)C3)[C@H](C)[C@H]12; test: purified protein, by the assay type

T4 sequence (Q9EXV5 entry or part of it): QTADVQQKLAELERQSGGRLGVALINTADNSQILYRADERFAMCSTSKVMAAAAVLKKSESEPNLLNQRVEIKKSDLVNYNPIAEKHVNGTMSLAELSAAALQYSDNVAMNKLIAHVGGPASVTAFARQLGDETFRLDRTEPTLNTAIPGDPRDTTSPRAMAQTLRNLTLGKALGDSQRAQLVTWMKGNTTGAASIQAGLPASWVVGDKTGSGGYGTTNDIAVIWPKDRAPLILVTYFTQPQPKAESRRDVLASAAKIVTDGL
T1 sequence (P00811 20-377): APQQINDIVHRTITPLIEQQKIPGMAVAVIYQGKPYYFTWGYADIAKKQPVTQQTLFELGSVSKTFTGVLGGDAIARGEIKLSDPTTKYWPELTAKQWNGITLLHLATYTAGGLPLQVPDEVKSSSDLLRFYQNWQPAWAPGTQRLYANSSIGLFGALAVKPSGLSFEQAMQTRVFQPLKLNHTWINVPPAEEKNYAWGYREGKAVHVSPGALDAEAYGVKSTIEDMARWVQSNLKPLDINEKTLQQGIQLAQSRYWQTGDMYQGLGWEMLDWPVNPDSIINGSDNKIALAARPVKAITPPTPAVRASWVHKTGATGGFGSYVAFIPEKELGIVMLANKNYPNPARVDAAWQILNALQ

COC(=O)c1cccc(CS(=O)(=O)NCc2cnnn2Cc2cccc(B(O)O)c2)c1 [7a]
Ki (AmpC [1]; AmpC, values in nM): 170 nM
Ki (KPC-2 [2]): 4600 nM

C#CCOc1cccc(C(N)=O)c1 [Al-32]
AC (amplification coefficient) (KPC-2 [3]): exceeding three

C#CCS(=O)(=O)c1ccccc1 [Al-39]
AC (amplification coefficient) (KPC-2 [3]): exceeding three

C#CCNS(=O)(=O)Cc1cccc(C(=O)OC)c1 [Al-57]
AC (amplification coefficient) (KPC-2 [3]): exceeding three

C#CCNC(=O)c1ccc(C(=O)OC)cc1 [Al-88]
AC (amplification coefficient) (AmpC [4]): 3-4

Nc1nnc(SCC(=O)N[C@@H](Cn2cc(C(=O)O)nn2)B(O)O)s1 [MB076]
Ki (ADC-7): 210 nM

[N-]=[N+]=NCc1ccccc1B(O)O [compound 2]
inhibition at 100 µM (AmpC [5]): 57%
inhibition at 200 µM (NDM-1): 23%
% of inhibition (SHV-12): 14%
inhibition at 100 µM (KPC-2 [6]): 35%
inhibition at 200 µM (IMP-1): 12%
inhibition at 200 µM (OXA-48): < 1%
inhibition at 200 µM (KPC-53): 54%
inhibition at 200 µM (CTX-M-15): 0%
inhibition at 200 µM (OXA-24): 20%
inhibition at 200 µM (ADC-25): 27%
inhibition at 200 µM (CMY-2): 19%
inhibition at 200 µM (VIM-1): 23%

[N-]=[N+]=NCc1cccc(B(O)O)c1 [compound 3, (3-(azidomethyl)phenyl)boronic acid]
activity vs. KPC-2 (KPC-2 [7]): sub-µM
Ki (AmpC [1]; AmpC, values in nM): 700 nM
inhibition at 100 µM (AmpC [5]): 100%
% of inhibition (AmpC [5]; AmpC, class C, inhibitor 100 µM, substrate NCF): completely inhibits
inhibition at 200 µM (NDM-1): 20%
% of inhibition (SHV-12): 38%
inhibition at 100 µM (KPC-2 [6]): 76%
inhibition at 200 µM (IMP-1): 11%
inhibition at 200 µM (OXA-48): 2%
inhibition at 200 µM (KPC-53): 65%
inhibition at 200 µM (CTX-M-15): 42%
inhibition at 200 µM (OXA-24): 24%
inhibition at 200 µM (ADC-25): 67%
inhibition at 200 µM (CMY-2): 79%
inhibition at 200 µM (VIM-1): 24%
Ki (KPC-2 [2]): 2300 nM

[N-]=[N+]=NCc1ccc(B(O)O)cc1 [compound 4, (4-(azidomethyl)phenyl)boronic acid]
activity vs. KPC-2 (KPC-2 [7]): sub-µM
inhibition at 100 µM (AmpC [5]): 81%
inhibition at 200 µM (NDM-1): 24%
% of inhibition (SHV-12): 48%
inhibition at 100 µM (KPC-2 [6]): 72%
inhibition at 200 µM (IMP-1): 22%
inhibition at 200 µM (OXA-48): < 1%
inhibition at 200 µM (KPC-53): 55%
inhibition at 200 µM (CTX-M-15): 22%
inhibition at 200 µM (OXA-24): 26%
inhibition at 200 µM (ADC-25): 46%
inhibition at 200 µM (CMY-2): 67%
inhibition at 200 µM (VIM-1): 33%

NC(=O)c1cccc(OCc2cn(Cc3cccc(B(O)O)c3)nn2)c1 [compound 5]
AC (amplification coefficient) (KPC-2 [3]): 3-4
Ki (KPC-2 [2]; KPC-2, values in nM): 730 nM
improvement compared with the warhead activity (KPC-2 [2]): 3 fold

O=S(=O)(Cc1cn(Cc2cccc(B(O)O)c2)nn1)c1ccccc1 [compound 6]
AC (amplification coefficient) (KPC-2 [3]): 3-4
Ki (KPC-2 [2]): 800 nM
improvement compared with the warhead activity (KPC-2 [2]): 3 fold

COC(=O)c1cccc(CS(=O)(=O)NCc2cn(Cc3cccc(B(O)O)c3)nn2)c1 [compound 7]
AC (amplification coefficient) (AmpC [4]): 4-5
AC (amplification coefficient) (KPC-2 [3]): 5-6
Ki (AmpC [1]; AmpC, values in nM): 300 nM
Ki (KPC-2 [2]): 1700 nM

CCCCC(=O)NCc1cn(Cc2cccc(B(O)O)c2)nn1 [compound 8]
Ki (AmpC [1]): 1500 nM
Ki (KPC-2 [2]): 7600 ± 400 nM

CC(C)CC(O)c1cn(Cc2cccc(B(O)O)c2)nn1 (centres unmarked) [compound 9]
Ki (AmpC [1]): 11000 nM
Ki (KPC-2 [2]): 5600 ± 300 nM

O=S(=O)(NCc1cn(Cc2cccc(B(O)O)c2)nn1)C1CCCCC1 [compound 10]
Ki (AmpC [1]; AmpC, values in nM): 600 nM
Ki (KPC-2 [2]): 670 ± 100 nM

CN(C)c1ccc(-c2cn(Cc3cccc(B(O)O)c3)nn2)cc1 [compound 11]
Ki (AmpC [1]; AmpC, values in nM): 280 nM
Ki (KPC-2 [2]): 460 nM

COC(=O)c1ccc(C(=O)NCc2cn(Cc3cccc(B(O)O)c3)nn2)cc1 [compound 12]
AC (amplification coefficient) (AmpC [4]): 3-4
Ki (AmpC [1]; AmpC, values in nM): 400 nM

O=C(CCC1CCCCC1)NCc1cn(Cc2cccc(B(O)O)c2)nn1 [compound 13]
Ki (AmpC [1]; AmpC, values in nM): 800 nM

CMY-2 (Klebsiella pneumoniae)
Km ([8]; other: CMY-2, NaPi 50 mM pH 7.0): 8 ± 1 µM µM

CTX-M-15 (Escherichia coli)
Km ([8]; other: CTX-M-15, NaPi 50 mM pH 7.0): 35 ± 1 µM µM

IMP-1 (Serratia marcescens)
Km ([9]; other: IMP-1, HEPES 20 mM pH 7.0 + 20 µM Zn): 30 ± 1 µM µM

OXA-24 (Acinetobacter baumannii)
Km ([8]; other: OXA-24, NaPi 50 mM pH 7.0): 29 ± 1 µM µM

VIM-1 (Pseudomonas aeruginosa PAO1)
Km ([9]; other: VIM-1, HEPES 20 mM pH 7.0 + 20 µM Zn): 130 ± 4 µM µM
